Drawing on ChEMBL document CHEMBL5370645, “Discovery, Characterization, and Bioactivity of the Achromonodins: Lasso Peptides Encoded by Achromobacter” (J Nat Prod, 2023), this text covers inhibition for one compound.

SMILES strings stand for the structures. Calls of active or inactive are those of the source. No cut-off for these calls is given here. Positions of bridges follow the written chain, without caps; N, C: chain ends. Residues, ends and D or L forms follow the SMILES beside them.

The test system of this assay is Escherichia coli. The experiment in a line: Inhibition of Escherichia coli RNA polymerase assessed as reduction in transcriptional capacity by abortive transcription initiation assay.

As for `CC[C@H](C)[C@@H]1NC(=O)[C@H](CO)NC(=O)CNC(=O)[C@H](CC(=O)O)NC(=O)CNC(=O)CNC(=O)CC[C@@H](C(=O)N[C@@H](Cc2ccc(O)cc2)C(=O)N[C@@H](Cc2ccccc2)C(=O)N[C@@H](CC(N)=O)C(=O)N[C@@H](CCCNC(=N)N)C(=O)N2CCC[C@H]2C(=O)N[C@@H](CCSC)C(=O)N[C@@H](Cc2c[nH]cn2)C(=O)N[C@H](C(=O)N[C@@H](Cc2c[nH]cn2)C(=O)N[C@@H](CC(=O)O)C(=O)N[C@@H](Cc2c[nH]c3ccccc23)C(=O)N[C@@H](CCC(N)=O)C(=O)N[C@H](C(=O)N[C@@H](CCSC)C(=O)N[C@@H](CC(=O)O)C(=O)N[C@@H](CO)C(=O)NCC(=O)N[C@@H](Cc2ccc(O)cc2)C(=O)N[C@@H](Cc2ccc(O)cc2)C(=O)NCC(=O)O)[C@@H](C)CC)[C@@H](C)CC)NC(=O)[C@H](C)NC1=O` (GGDGSIAEYFNRPMHIHDWQIMDSGYYG-OH; lactam N-8), the inhibition result was “Active”.
